Data as given in EP4772186A1, “USE AND COMPOSITION OF POSTBIOTIC OF LACTOBACILLUS PARACASEI ET-22” (Inner Mongolia Yili Industrial Group Co., Ltd., priority 2023, dated 2025).

Tests used:
[1] = tested on: volatile organic compounds (VOCs); assay: SPME-GC-MS of volatile organic compounds (VOCs) in saliva fermentation; type: cell-based, halitosis subjects (saliva)
Experimental: Fresh saliva was collected from 10 halitosis subjects (Halimeter index >120). Subjects were required not to consume any food or drink for 2 hours before donating saliva. Saliva was directly spat into a saliva collection tube, 5 ml per person, and mixed. The mixture was centrifuged at 4500 rpm for 10 minutes, and the supernatant was collected, aliquoted, and stored at -80°C for subsequent experimental studies.
(§1) Lysate group: In a headspace vial, 100 µl of saliva was added first, followed by separate addition of ET-22 viable bacteria (1.0×10^9 CFU/ml), ET-22 heat-inactivated bacterial cells (obtained by inactivating viable bacteria at 1.0×10^9 CFU/ml), and lysate (obtained by inactivating and then filtering viable bacteria at 1.0×10^9 CFU/ml), each at 100µl. Then, 800 µl of SHI medium was added. After filling with nitrogen, anaerobic cultivation was performed for 10 hours for loading on machine, and then SPME-GC-MS was used to test the change in content of volatile organic compound.
as §1, with “NAD group:” for “Lysate group:”, “by the” for “by”, “by heat-inactivating” for “by inactivating”, “and NAD (100 µg/ml),” for “and lysate (obtained by inactivating and then filtering viable bacteria at 1.0×10^9 CFU/ml),”, “machine,” for “machine, and”, “the changes” for “the change”
2-hydroxy-3-phenylpropionic acid group: In a headspace vial, 100 µl of saliva was added first, followed by the separate addition of ET-22 viable bacteria (1.0×10^9 CFU/ml), ET-22 heat-inactivated bacterial cells (obtained by heat-inactivating viable bacteria at 1.0×10^9 CFU/ml), and 2-hydroxy-3-phenylpropionic acid (100 µg/ml), each at 100µl. […]
Helium was used as a carrier gas, with a rate remaining at 1.1 mL min-1. […] The flavor characteristic of each compound was determined based on data from the Good Scents Company Information System (http://www.thegoodscentscompany.com).

[2] = tested on: halitosis virulence factors, including cdl, fadA, mgl, and gtfb; assay: RT-PCR of virulence factors in multi-species biofilm; type: cell-based; details: compared with CK group, 2^-△△CT method
Experimental: 100 µl of saliva was added to a 24-well plate, then 100 µl of the corresponding concentration solution was added respectively to the experimental groups, and finally 800 µl of SHI medium was added. The plate was placed in an anaerobic box and cultured anaerobically at 37°C for 10 hours. Then, the supernatant was discarded, and the multi-species biofilm adhered to the well plate was obtained. After discarding the supernatant from the incubated biofilm, the biofilm adhered to the bottom of the well plate was re-suspended with sterile water by pipetting, transferred to a 1.5 ml centrifuge tube, and stored until gene sequencing was performed.
This example evaluated the effects of lysate, NAD, 2-hydroxy-3-phenylpropionic acid, polypeptide GP(Hyp)GAG, and peptidoglycan on halitosis virulence factors, including cdl, fadA, mgl, and gtfb. The gene cdl can regulate the expression of L-cysteine […], which can catalyze the degradation of protein substrate to produce VSC, thereby causing halitosis. Fusobacterium nucleatum secretes an amyloid-like adhesin (fadA) via the fap2-like autotransporter protein to enhance its virulence. […]
After the sample RNA was reverse-transcribing into cDNA, RT-PCR reaction was performed to detect biofilm-related virulence factors. Experimental results were calculated using the 2^-△△CT method. […]

## O=C(O)C(O)Cc1ccccc1 (stereo not shown) [2-hydroxy-3-phenylpropionic acid]
[1]; among 71 aroma-active VOCs, 100 µg/ml
  number of flavor-active acid compounds: significantly decreases
[1]; among 71 aroma-active VOCs, pure components 100 µg/ml, others from 1.0×10^9 CFU/ml
  number of flavor-active ester compounds: significantly decreases
[1]; pure components 100 µg/ml, peptidoglycan from 1.0×10^9 CFU/ml, 10 hours
  number of alkane compounds (VOCs): significantly decreases
[2]
  expression of virulence factors (cdl, fadA, mgl, gtfb): significantly regulate
